How the values were obtained:
[1] = biological target: T1, SMARCA4 (Homo sapiens, UniProt P51532); assay: SMARCA4 HiBiT degradation assay in HeLa cells; format: cell-based; details: 18 hours, highest concentration 10 μM
T1 construct: SMARCA4-HiBiT knock-in Hela monoclonal cell (CS3023226); host or cells: HeLa monoclonal cells with heterozygous HiBiT knock-in at the endogenous SMARCA4 locus
How it was run: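 HeLa monoclonal cells with HiBiT knocked into SMARCA4 were seeded at 2500 cells/well, dosed with compound and incubated 18 hours at 37° C. HiBiT signal reported remaining SMARCA4 protein, and values came from curve fitting.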

[2] = biological target: T2, SMARCA2 (Homo sapiens, UniProt P51531); assay: SMARCA2 HiBiT degradation assay in HeLa cells; format: cell-based; details: 18 hours, highest concentration 10 μM
T2 construct: SMARCA2-HiBiT knock-in Hela monoclonal cell (CS302366); host or cells: HeLa monoclonal cells with heterozygous HiBiT knock-in at the endogenous SMARCA2 locus
T2 sequence (P51531 whole entry): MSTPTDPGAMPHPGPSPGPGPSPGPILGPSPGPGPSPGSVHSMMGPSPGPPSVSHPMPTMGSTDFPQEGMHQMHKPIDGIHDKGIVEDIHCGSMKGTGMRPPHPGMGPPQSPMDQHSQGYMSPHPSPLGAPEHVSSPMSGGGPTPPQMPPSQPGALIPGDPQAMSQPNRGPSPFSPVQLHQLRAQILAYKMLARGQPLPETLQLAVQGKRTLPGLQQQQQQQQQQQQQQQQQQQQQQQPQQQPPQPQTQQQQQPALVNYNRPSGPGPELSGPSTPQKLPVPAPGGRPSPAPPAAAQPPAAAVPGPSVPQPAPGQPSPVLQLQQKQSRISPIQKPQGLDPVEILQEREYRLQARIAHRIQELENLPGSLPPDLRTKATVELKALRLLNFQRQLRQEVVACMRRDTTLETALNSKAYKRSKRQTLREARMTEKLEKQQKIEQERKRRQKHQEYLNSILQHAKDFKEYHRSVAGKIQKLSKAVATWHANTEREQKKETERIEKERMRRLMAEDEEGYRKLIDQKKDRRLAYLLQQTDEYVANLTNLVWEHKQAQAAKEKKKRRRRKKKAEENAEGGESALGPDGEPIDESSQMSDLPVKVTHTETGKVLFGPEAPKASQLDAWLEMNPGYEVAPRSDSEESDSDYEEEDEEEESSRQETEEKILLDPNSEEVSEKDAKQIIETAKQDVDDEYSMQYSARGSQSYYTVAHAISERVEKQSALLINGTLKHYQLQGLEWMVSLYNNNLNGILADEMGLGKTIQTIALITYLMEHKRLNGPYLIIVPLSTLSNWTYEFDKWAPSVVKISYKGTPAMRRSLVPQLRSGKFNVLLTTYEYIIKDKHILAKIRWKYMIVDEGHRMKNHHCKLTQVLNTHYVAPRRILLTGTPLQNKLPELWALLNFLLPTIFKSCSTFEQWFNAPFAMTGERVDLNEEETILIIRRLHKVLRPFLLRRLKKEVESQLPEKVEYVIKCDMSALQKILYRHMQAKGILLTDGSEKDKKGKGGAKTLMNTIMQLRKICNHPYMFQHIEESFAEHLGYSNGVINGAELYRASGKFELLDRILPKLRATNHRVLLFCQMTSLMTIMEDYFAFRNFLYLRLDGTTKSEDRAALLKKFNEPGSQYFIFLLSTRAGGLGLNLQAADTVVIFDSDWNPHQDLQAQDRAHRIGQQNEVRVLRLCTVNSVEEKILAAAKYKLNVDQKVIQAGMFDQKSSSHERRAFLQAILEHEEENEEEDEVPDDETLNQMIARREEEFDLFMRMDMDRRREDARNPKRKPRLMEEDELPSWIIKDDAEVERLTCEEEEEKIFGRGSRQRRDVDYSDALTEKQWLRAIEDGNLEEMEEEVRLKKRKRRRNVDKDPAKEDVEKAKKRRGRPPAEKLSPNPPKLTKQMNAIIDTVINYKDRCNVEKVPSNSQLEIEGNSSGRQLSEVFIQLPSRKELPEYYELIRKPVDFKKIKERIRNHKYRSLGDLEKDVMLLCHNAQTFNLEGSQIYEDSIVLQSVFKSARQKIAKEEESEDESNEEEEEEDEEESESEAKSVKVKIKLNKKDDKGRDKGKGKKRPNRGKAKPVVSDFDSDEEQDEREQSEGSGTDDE
How it was run: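 HeLa cells carrying a heterozygous C-terminal HiBiT knock-in on SMARCA2 were seeded at 2500 cells/well. They were treated with 3-fold dilution series, top concentration 10 μM, for 18 h at 37 °C. Remaining SMARCA2-HiBiT was measured by Nano-Glo HiBiT lytic luminescence after 30-60 min at RT, followed by curve fitting.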

T1 sequence (P51532 whole entry): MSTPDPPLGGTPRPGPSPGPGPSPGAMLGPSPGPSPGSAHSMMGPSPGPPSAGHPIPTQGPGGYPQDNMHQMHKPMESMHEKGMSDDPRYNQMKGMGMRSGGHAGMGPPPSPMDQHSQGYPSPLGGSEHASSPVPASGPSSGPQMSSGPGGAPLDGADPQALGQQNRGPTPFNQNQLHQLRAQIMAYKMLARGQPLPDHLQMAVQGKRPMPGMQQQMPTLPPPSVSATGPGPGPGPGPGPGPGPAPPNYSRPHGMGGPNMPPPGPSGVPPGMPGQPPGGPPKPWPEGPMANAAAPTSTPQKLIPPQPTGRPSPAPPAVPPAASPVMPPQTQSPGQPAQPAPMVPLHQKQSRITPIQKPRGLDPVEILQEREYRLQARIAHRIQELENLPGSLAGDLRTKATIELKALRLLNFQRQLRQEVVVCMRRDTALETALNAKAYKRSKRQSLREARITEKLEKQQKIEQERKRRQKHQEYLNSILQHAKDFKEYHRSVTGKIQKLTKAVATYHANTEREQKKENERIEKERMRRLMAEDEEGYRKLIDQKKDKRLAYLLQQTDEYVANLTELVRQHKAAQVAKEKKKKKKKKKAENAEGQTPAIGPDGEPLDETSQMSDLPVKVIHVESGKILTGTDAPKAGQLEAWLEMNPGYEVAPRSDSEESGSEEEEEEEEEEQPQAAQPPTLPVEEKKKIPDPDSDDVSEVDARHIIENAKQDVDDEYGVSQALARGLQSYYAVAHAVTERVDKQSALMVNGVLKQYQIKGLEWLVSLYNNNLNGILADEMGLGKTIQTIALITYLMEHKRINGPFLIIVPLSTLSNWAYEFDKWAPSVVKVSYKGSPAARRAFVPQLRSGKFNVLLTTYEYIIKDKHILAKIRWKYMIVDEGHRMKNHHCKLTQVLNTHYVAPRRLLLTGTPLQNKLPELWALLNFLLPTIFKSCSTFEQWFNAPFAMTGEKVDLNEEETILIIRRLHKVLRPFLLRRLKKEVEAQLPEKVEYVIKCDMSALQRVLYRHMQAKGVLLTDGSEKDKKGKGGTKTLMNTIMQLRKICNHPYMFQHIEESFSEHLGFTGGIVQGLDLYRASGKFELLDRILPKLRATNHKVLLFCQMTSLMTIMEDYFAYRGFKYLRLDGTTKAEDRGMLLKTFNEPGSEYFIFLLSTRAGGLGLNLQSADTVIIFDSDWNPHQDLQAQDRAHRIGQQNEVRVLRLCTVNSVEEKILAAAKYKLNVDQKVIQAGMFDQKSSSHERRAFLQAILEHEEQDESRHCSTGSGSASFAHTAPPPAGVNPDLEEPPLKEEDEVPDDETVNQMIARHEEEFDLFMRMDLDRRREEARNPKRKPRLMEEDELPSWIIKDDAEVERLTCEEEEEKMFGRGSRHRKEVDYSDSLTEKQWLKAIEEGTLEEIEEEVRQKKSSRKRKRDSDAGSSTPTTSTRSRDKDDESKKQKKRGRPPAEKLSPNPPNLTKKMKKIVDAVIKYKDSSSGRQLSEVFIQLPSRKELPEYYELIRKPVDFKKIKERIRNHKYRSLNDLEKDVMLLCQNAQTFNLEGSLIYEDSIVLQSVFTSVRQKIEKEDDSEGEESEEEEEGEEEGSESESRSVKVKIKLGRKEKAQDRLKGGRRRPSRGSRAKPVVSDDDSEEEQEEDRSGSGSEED

With Cc1nc(O[C@H]2CN3c4cc(-c5cccc(F)c5O)nnc4NC[C@]3(C(F)F)C2)c(C)nc1CN1CCN(c2ccc3c(c2)C(=O)N([C@H]2CCC(=O)NC2=O)C3)CC1 [Example 48, (S)-3-(6-(4-((5-(((6aS,8R)-6a-(difluoromethyl)-2-(3-fluoro-2-hydroxyphenyl)-5,6,6a,7,8,9-hexahydropyrrolo[1′,2′:4,5]pyrazino[2,3-c]pyridazin-8-yl)oxy)-3,6-dimethylpyrazin-2-yl)methyl)piperazin-1-yl)-1-oxoisoindolin-2-yl)piperidine-2,6-dione] the DC50 [1] was 100 to 1000 nM, the Dmax [1] was less than 50% and the DC50 [2] was less than 100 nM. The Dmax [2] was 50 to 75%.
CC[C@]12CNc3nnc(-c4cccc(F)c4O)cc3N1C[C@H](Oc1cnc(CN3CCN(c4ccc5c(c4)CN([C@H]4CCC(=O)NC4=O)C5=O)CC3)c(C)c1)C2 [Example 74, (S)-3-(5-(4-((5-(((6aS,8R)-6a-ethyl-2-(3-fluoro-2-hydroxyphenyl)-5,6,6a,7,8,9-hexahydropyrrolo[1′,2′:4,5]pyrazino[2,3-c]pyridazin-8-yl)oxy)-3-methylpyridin-2-yl)methyl)piperazin-1-yl)-1-oxoisoindolin-2-yl)piperidine-2,6-dione] gave a DC50 [1] of less than 100 nM, a Dmax [1] greater than 75% and a DC50 [2] of less than 100 nM. For the same compound, the Dmax [2] was greater than 75%.
With O=C1CCC(N2Cc3ccc(N4CCN(Cc5ccc(O[C@@H]6C[C@@H]7CNc8nnc(-c9cc(F)cc(F)c9O)cc8N7C6)nc5)CC4)cc3C2=O)C(=O)N1 (stereo partly drawn) [Example 33, 3-(6-(4-((6-(((6aR,8R)-2-(3,5-difluoro-2-hydroxyphenyl)-5,6,6a,7,8,9-hexahydropyrrolo[1′,2′:4,5]pyrazino[2,3-c]pyridazin-8-yl)oxy)pyridin-3-yl)methyl)piperazin-1-yl)-1-oxoisoindolin-2-yl)piperidine-2,6-dione] the DC50 [1] was less than 100 nM, the Dmax [1] was greater than 75% and the DC50 [2] was less than 100 nM. For the same compound, the Dmax [2] was greater than 75%.
In the case of Cc1cc(O[C@H]2CN3c4cc(-c5cccc(F)c5O)nnc4NC[C@@]3(CF)C2)ncc1CN1CCC(c2ccc3c(c2)C(=O)N([C@H]2CCC(=O)NC2=O)C3)CC1 [Example 93, (S)-3-(6-(1-((6-(((6aR,8R)-2-(3-fluoro-2-hydroxyphenyl)-6a-(fluoromethyl)-5,6,6a,7,8,9-hexahydropyrrolo [1′,2′:4,5]pyrazino[2,3-c]pyridazin-8-yl)oxy)-4-methylpyridin-3-yl)methyl)piperidin-4-yl)-1-oxoisoindolin-2-yl)piperidine-2,6-dione], the DC50 [1] is reported as greater than 1000 nM, the Dmax [1] is reported as less than 50% and the DC50 [2] is reported as less than 100 nM. It also gave a Dmax [2] greater than 75%.
In the case of CCc1cc(CN2CCN(c3ccc4c(c3)C(=O)N([C@H]3CCC(=O)NC3=O)C4)CC2)cnc1O[C@H]1CN2c3cc(-c4cccc(F)c4O)nnc3NC[C@]2(C(F)F)C1 [Example 47, (S)-3-(6-(4-((6-(((6aS,8R)-6a-(difluoromethyl)-2-(3-fluoro-2-hydroxyphenyl)-5,6,6a,7,8,9-hexahydropyrrolo [1′,2′:4,5]pyrazino[2,3-c]pyridazin-8-yl)oxy)-5-ethylpyridin-3-yl)methyl)piperazin-1-yl)-1-oxoisoindolin-2-yl)piperidine-2,6-dione], the DC50 [1] is reported as less than 100 nM, the Dmax [1] is reported as greater than 75% and the DC50 [2] is reported as less than 100 nM. It also gave a Dmax [2] greater than 75%.
For Cc1cc(O[C@@H]2C[C@@H]3CNc4nnc(-c5cc(F)cc(F)c5O)cc4N3C2)c(C)cc1CN1CCN(c2ccc3c(c2)C(=O)N(C2CCC(=O)NC2=O)C3)CC1 (stereo partly drawn) [Example 9, 3-(6-(4-(4-(((6aR,8R)-2-(3,5-difluoro-2-hydroxyphenyl)-5,6,6a,7,8,9-hexahydropyrrolo[1′,2′:4,5]pyrazino[2,3-c]pyridazin-8-yl)oxy)-2,5-dimethylbenzyl)piperazin-1-yl)-1-oxoisoindolin-2-yl)piperidine-2,6-dione], the DC50 [1] was less than 100 nM, the Dmax [1] was 50 to 75% and the DC50 [2] was less than 100 nM. It also gave a Dmax [2] greater than 75%.

Reference: patent publication US20240165244A1 (Prelude Therapeutics Incorporated, priority 2022, published 2024)
